The structures appear in SMILES notation. Where two headings read alike, the source gives them in different places. Residues, ends and D or L forms follow the SMILES beside them.

As a reminder, the IC50 is the concentration that inhibits the measured activity by half.

In one test the target is T1, C. albicans Pma1 (Candida albicans, UniProt P28877).
T1 construct: endogenous in cells
The test is described as follows: ATP hydrolysis assay, C. albicans Pma1. The test is classed as biochemical. The method, then: (§1) A 100-ml overnight culture in YPD medium [10 g/liter yeast extract (BD, Sparks, MD), 20 g/liter Bacto peptone (BD), 20 g/liter D-(+)-glucose] was transferred to 1 liter YPD medium and grown at room temperature and 150 rpm for 18 h for wild-type S. cerevisiae (ATCC 9763) and 7 h for C. albicans. The cells were harvested and washed in Milli-Q H2O by centrifugation at 3,360 × g. The cells were glucose activated by the addition of 10% D-(+)-glucose for 10 min while shaking. The cells were then centrifuged at 3,360 × g for 3 min and frozen. Cells (60 to 80 g, wet weight) were then disrupted by bead beating (BioSpec, Bartlesville, OK) and processed as described in reference to prepare the plasma membranes. […] All batches were validated by ATPase hydrolysis activity, pH optimum, and orthovanadate sensitivity.
The protein activity levels were determined by measuring the amount of free phosphate produced from the ATP hydrolysis reaction. The assay was performed as described in reference. Each well contained ATPase enzyme, 2 μl of inhibitor (usually in the range of 333 to 0.01 μM) dissolved in dimethyl sulfoxide (DMSO) (Duchefa Biochemie, Haarlem, The Netherlands), and an assay buffer dependent on the enzyme for a final volume of 60 μl. Possible compound precipitation in the assay buffer was monitored using a Nephelostar plate reader measuring turbidity, and the information was taken into account in the IC50 determination. Pma1 assay buffer consisted of 20 mM 3-(N-morpholino)propanesulfonic acid (MOPS)–NaOH, pH 6.5 or 7.0, 8 mM MgSO4, 50 mM KNO3 (a vacuolar ATPase inhibitor), 25 mM sodium azide (a mitochondrial ATPase inhibitor), and 250 μM sodium molybdate (an acid phosphatase inhibitor). SERCA buffer consisted of 9 mM MOPS-NaOH, pH 7, 2.7 mM MgCl2, 90 μM CaCl2, and 72 mM KCl. Na^+,K^+-ATPase buffer consisted of 30 mM MOPS-NaOH, pH 7, 40 mM NaCl, 4 mM MgCl2, and 20 mM KCl. The concentration of protein was adjusted to obtain a signal of the optical density at 860 nm (OD860) of between 0.5 and 1.0 in the untreated samples (for all Pma1 batches, ∼1 to 2 μg/well; for SERCA and Na^+,K^+-ATPase, ∼0.1 to 0.2 μg/well). BM2 ([…]-NH2, D-form amino acids) was custom synthesized by Peptide 2.0 (Chantilly, VA).

Another test concerns the target Ca^2+-ATPase (SERCA1a) (Oryctolagus cuniculus, UniProt P04191). The test is described as follows: ATP hydrolysis assay, SERCA. The format is biochemical, rabbit. The method, then: Rabbit sarcoplasmic reticulum membranes containing sarcoplasmic endoplasmic reticulum Ca^2+-ATPase (SERCA) were kindly provided by Claus E. Olesen and Jesper V. Møller, Aarhus University, and prepared as described in reference. Porcine kidney Na^+,K^+-ATPase was kindly provided by Natalya Fedosova, Aarhus University, and prepared as described in reference.
(§2) The protein activity levels were determined by measuring the amount of free phosphate produced from the ATP hydrolysis reaction. The assay was performed as described in reference. Each well contained ATPase enzyme, 2 μl of inhibitor (usually in the range of 333 to 0.01 μM) dissolved in dimethyl sulfoxide (DMSO) (Duchefa Biochemie, Haarlem, The Netherlands), and an assay buffer dependent on the enzyme for a final volume of 60 μl. Possible compound precipitation in the assay buffer was monitored using a Nephelostar plate reader measuring turbidity, and the information was taken into account in the IC50 determination. Pma1 assay buffer consisted of 20 mM 3-(N-morpholino)propanesulfonic acid (MOPS)–NaOH, pH 6.5 or 7.0, 8 mM MgSO4, 50 mM KNO3 (a vacuolar ATPase inhibitor), 25 mM sodium azide (a mitochondrial ATPase inhibitor), and 250 μM sodium molybdate (an acid phosphatase inhibitor). SERCA buffer consisted of 9 mM MOPS-NaOH, pH 7, 2.7 mM MgCl2, 90 μM CaCl2, and 72 mM KCl. Na^+,K^+-ATPase buffer consisted of 30 mM MOPS-NaOH, pH 7, 40 mM NaCl, 4 mM MgCl2, and 20 mM KCl. The concentration of protein was adjusted to obtain a signal of the optical density at 860 nm (OD860) of between 0.5 and 1.0 in the untreated samples (for all Pma1 batches, ∼1 to 2 μg/well; for SERCA and Na^+,K^+-ATPase, ∼0.1 to 0.2 μg/well).

The next test addresses S. cerevisiae Pma1 (Saccharomyces cerevisiae, UniProt P05030). The test is described as follows: ATP hydrolysis assay, S. cerevisiae plasma membranes containing Pma1. The format is biochemical. The arrangement: containing the full-length cDNA of the S. cerevisiae plasma membrane H^+-ATPase isoform PMA1; made in house; host or cells: S. cerevisiae RS72 (PMA1 cDNA under PMA1 promoter); also wild-type S. cerevisiae ATCC 9763. As to conditions: for Selectivity toward Pma1 than toward SERCA or Na^+,K^+-ATPase / Selectivity for Pma1 over SERCA / Selectivity for Pma1 over Na^+,K^+-ATPase: from IC50 of Table 2. The method, then:
Plasma membranes containing Pma1 were isolated from S. cerevisiae RS72 cells containing the full-length cDNA of the S. cerevisiae plasma membrane H^+-ATPase isoform PMA1 under the control of the PMA1 promoter, as described in reference.
as §1
as §2, with “μg/well). […]” for “μg/well).”

Where [1] appears, read: Table 2, pH 7, n = 2, rabbit SERCA1a, read-out: IC50 for ATP hydrolysis, SERCA.
The mark [2] stands for this setting: Table 1, ATP hydrolysis at pH 7, 2 to 3 experiments, read-out: IC50 Pma1.
Setting [3] is: Table 1, ATP hydrolysis at pH 6.5 (compounds marked b), 2 to 3 experiments, read-out: IC50 Pma1.
[4] abbreviates: Table 2, pH 7, n = 2, read-out: IC50 for ATP hydrolysis, C. albicans Pma1.
Where [5] appears, read: Table 2, pH 7, n = 2, read-out: IC50 for ATP hydrolysis, S. cerevisiae Pma1.
Where [6] appears, read: read-out: IC50 for the Pma1 enzyme from C. albicans.
Setting [7] is: ATP hydrolysis, S. cerevisiae Pma1, read-out: IC50 for Pma1.

T1 sequence (P28877 whole entry): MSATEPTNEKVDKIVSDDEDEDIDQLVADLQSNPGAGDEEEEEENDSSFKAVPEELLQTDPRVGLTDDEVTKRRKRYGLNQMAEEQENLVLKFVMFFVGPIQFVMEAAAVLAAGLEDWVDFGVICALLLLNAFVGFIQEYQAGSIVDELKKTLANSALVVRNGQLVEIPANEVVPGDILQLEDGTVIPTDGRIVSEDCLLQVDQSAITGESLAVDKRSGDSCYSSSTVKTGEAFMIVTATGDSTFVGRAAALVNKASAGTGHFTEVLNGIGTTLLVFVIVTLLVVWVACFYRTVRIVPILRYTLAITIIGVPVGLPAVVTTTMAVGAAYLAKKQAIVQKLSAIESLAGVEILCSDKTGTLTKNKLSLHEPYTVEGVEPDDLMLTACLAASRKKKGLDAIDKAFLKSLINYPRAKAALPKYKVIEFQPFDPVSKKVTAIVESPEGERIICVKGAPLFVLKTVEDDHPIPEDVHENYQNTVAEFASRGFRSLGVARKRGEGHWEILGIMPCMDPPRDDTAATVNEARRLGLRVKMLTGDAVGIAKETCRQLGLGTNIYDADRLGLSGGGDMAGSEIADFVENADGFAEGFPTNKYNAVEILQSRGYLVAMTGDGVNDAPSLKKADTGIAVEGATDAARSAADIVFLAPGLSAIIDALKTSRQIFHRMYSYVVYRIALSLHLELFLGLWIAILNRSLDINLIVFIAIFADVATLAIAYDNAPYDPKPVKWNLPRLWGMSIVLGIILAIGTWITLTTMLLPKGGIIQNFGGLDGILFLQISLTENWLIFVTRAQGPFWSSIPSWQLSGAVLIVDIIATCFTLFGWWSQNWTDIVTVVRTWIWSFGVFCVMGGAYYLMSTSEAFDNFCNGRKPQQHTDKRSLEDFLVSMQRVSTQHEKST
Ca^2+-ATPase (SERCA1a), sequence (P04191 1-994 isoform P04191-2): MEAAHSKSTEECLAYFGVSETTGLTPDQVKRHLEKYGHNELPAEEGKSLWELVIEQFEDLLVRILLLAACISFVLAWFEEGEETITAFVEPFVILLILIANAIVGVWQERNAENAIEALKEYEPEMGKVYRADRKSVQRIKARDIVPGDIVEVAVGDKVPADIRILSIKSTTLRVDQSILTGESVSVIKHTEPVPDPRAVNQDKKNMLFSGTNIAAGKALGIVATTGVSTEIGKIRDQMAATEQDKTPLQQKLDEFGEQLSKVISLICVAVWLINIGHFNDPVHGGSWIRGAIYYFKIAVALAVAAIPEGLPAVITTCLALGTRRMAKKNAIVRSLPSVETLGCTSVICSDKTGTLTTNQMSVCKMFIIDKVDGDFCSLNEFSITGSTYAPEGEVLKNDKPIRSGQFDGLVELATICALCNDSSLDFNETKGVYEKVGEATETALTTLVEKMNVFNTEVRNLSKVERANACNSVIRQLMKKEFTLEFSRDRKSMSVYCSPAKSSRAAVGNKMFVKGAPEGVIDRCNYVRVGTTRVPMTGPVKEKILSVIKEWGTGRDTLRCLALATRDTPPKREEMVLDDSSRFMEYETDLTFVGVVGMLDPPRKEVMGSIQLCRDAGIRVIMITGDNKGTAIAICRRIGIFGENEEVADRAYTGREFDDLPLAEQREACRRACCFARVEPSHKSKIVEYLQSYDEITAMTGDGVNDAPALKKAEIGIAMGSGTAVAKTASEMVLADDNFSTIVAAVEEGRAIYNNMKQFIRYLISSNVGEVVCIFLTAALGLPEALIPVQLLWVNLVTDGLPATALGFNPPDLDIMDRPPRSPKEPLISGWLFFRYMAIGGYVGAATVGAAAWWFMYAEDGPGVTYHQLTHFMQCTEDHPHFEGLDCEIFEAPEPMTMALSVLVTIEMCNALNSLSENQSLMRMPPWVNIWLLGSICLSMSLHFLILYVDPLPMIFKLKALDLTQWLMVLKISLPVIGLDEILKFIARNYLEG
S. cerevisiae Pma1, sequence (P05030 whole entry, canonical isoform): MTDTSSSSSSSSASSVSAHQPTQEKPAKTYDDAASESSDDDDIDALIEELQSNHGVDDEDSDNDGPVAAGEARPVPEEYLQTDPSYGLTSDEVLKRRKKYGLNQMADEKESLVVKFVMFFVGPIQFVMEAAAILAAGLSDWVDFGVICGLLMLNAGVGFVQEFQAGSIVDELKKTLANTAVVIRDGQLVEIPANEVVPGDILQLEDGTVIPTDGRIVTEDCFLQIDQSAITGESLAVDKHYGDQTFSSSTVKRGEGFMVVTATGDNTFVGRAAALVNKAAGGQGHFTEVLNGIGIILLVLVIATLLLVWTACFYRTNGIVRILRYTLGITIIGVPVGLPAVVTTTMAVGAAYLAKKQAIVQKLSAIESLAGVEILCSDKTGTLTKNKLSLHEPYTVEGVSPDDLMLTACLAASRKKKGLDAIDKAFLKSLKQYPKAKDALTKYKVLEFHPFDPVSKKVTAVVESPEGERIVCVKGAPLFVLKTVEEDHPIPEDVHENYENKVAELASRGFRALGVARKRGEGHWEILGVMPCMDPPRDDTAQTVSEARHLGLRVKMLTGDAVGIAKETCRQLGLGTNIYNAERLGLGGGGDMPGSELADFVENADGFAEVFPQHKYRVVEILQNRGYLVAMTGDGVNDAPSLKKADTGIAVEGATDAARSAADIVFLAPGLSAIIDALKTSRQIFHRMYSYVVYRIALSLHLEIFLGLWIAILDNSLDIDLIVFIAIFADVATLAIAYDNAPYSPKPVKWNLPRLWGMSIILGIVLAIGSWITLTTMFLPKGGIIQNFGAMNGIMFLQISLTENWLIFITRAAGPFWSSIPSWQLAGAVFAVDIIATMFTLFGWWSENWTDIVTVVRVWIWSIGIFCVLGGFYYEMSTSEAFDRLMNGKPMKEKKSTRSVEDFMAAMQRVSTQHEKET

Consider `O=c1c2ccccc2[se]n1-c1ccccc1` [Ebselen, reference compound], for which the concentration for half-maximal inhibition (IC50) stood at 0.51 ± 0.04 µM on C. albicans Pma1 (IC50 for ATP hydrolysis, C. albicans Pma1, Table 2, pH 7, n = 2) and 0.12 µM on Ca^2+-ATPase (SERCA1a) (setting [1]).
In the case of `CCCCOc1ccc(C2C(C#N)=C(N)Oc3cc(O)ccc32)cc1` (stereo not drawn) [Compound 11], the IC50 against Ca^2+-ATPase (SERCA1a) is 15.7 ± 2 µM; on S. cerevisiae Pma1 (setting [2]), 12.8 ± 5 µM.
For the compound `O=C1/C(=C/c2ccc(-c3cc(Cl)ccc3Cl)o2)C=C(c2ccccc2)N1c1ccccc1O` [Compound 1], the half-maximal inhibitory concentration (IC50) on Ca^2+-ATPase (SERCA1a) worked out at 17.5 ± 4.7 µM; on S. cerevisiae Pma1 (setting [3]) it was 0.04 ± 0.035 µM.
`CCCCc1nc2sc3c(NCCCN(C)C)nc(SC)nc3c2c2c1CCC2` [Compound 15]: the results for the IC50 at C. albicans Pma1 (setting [4]), on Ca^2+-ATPase (SERCA1a) (setting [1]) and on S. cerevisiae Pma1 (setting [5]) were 6.3 ± 0.5 µM, 4.5 µM and 5.9 ± 0.2 µM, respectively. Also, the “Selectivity toward Pma1 than toward SERCA or Na^+,K^+-ATPase” value at S. cerevisiae Pma1 is reported as “no selectivity”.
`COc1ccc(-c2cc(C(=O)Nc3ccc4c(c3)OCCO4)c3ccccc3n2)c(OC)c1` [Compound 8]: the IC50 at Ca^2+-ATPase (SERCA1a) is greater than 105 µM; on S. cerevisiae Pma1 (setting [2]), 6.9 ± 2 µM.
Consider `COc1ccc(Cn2c(SCc3cc(C)ccc3C)nc3cc(OC)c(OC)cc3c2=N)cc1` [Compound 12], for which the IC50 at S. cerevisiae Pma1 (setting [2]) came out at 15.5 ± 8.1 µM.
Turning to `Cc1c(-c2ccccc2)[o+]c2ccccc2c1C#Cc1ccccc1` [Compound 6], the IC50 on S. cerevisiae Pma1 (setting [3]) was 5 ± 3 µM.
Turning to `CCN(CC)CCCNc1nc(SC)nc2c1sc1nc(-c3ccccc3)c3c(c12)CCC3` [Compound 19], the IC50 on C. albicans Pma1 (setting [4]) was 8.7 ± 0.5 µM; at C. albicans Pma1 (setting [6]), 9 µM; at Ca^2+-ATPase (SERCA1a) (setting [1]), 4.4 ± 0.3 µM; at S. cerevisiae Pma1 (setting [5]) it was 7.3 ± 1 µM. The “Selectivity toward Pma1 than toward SERCA or Na^+,K^+-ATPase” value on S. cerevisiae Pma1 is recorded as “no selectivity”.
Take `CCc1nc2sc3c(NCCCN(C)C)ncnc3c2c2c1CCCC2` [Compound 17]: the IC50 on C. albicans Pma1 (setting [4]) is 151 ± 6.2 µM; on Ca^2+-ATPase (SERCA1a), greater than 333 µM; on S. cerevisiae Pma1 (setting [7]) it was 107 µM; on S. cerevisiae Pma1 (setting [5]), 107 ± 18.2 µM.
With `Oc1cccc(Nc2nc(-c3ccc(Cl)c(Cl)c3)cs2)c1` [Compound 7], the values for the half-inhibitory concentration (IC50) at S. cerevisiae Pma1 (setting [7]) and on S. cerevisiae Pma1 (setting [3]) were less than 25 µM and 5.5 ± 0.3 µM, respectively.
With `CN(C)CCCNc1ncnc2c1sc1nc(N3CCCCC3)c3c(c12)CCCC3` [Compound 16], the IC50 on C. albicans Pma1 (setting [4]) amounted to 9.5 ± 1 µM; at Ca^2+-ATPase (SERCA1a), 11.1 µM; on S. cerevisiae Pma1 (setting [5]) it was 7.8 ± 0.6 µM. Besides, on S. cerevisiae Pma1, the “Selectivity toward Pma1 than toward SERCA or Na^+,K^+-ATPase” value was “no selectivity”.
On to `[O]=[V]([O-])([O-])[O-]` [Vanadate, reference compound], for which the IC50 at C. albicans Pma1 (setting [4]) was determined as 0.23 ± 0.05 µM; at Ca^2+-ATPase (SERCA1a) (setting [1]), 10.4 ± 2.4 µM; on S. cerevisiae Pma1 (setting [5]) it was 0.25 ± 0.01 µM.
Turning to `COc1cccc(Nc2nc(Cl)nc(Nc3cccc(OC)c3)n2)c1` [Compound 9], the values for the IC50 on Ca^2+-ATPase (SERCA1a) and on S. cerevisiae Pma1 (setting [2]) were greater than 105 µM and 9.2 ± 1 µM, respectively.
With `CC1CCCCN1CC(O)Cn1c(-c2ccccc2)c(-c2ccccc2)c2ccc3ccccc3c21` (stereo not drawn) [Compound 4], the IC50 at Ca^2+-ATPase (SERCA1a) came to 4.1 ± 0.2 µM; on S. cerevisiae Pma1 (setting [3]), 3.7 ± 0.7 µM.
As to `CCOc1ccc2nc3cc(NC(=O)c4cccc(Br)c4)ccc3c(N)c2c1` [Compound 5], the values for the IC50 against Ca^2+-ATPase (SERCA1a), at S. cerevisiae Pma1 (setting [7]) and at S. cerevisiae Pma1 (setting [3]) were 0.46 ± 0.04 µM, less than 25 µM and 4.4 ± 0.6 µM, respectively.
In the case of `CCCCc1nc2sc3c(NCCCN(C)C)ncnc3c2c2c1CCCC2` [Compound 14], the IC50 turned out to be 17 ± 0.9 µM on C. albicans Pma1 (setting [4]); 17 µM on C. albicans Pma1 (setting [6]); 42 ± 8 µM against Ca^2+-ATPase (SERCA1a); 13.7 ± 2 µM at S. cerevisiae Pma1 (setting [2]); 13.7 ± 2 µM on S. cerevisiae Pma1 (setting [5]). Moreover, the “Selectivity for Pma1 over SERCA” value on S. cerevisiae Pma1 was 3 fold.
On to `COc1ccc(-c2cc(C(=O)Nc3ccc(C(C)C)cc3)c3ccccc3n2)c(OC)c1` [Compound 3], for which the IC50 against Ca^2+-ATPase (SERCA1a) was greater than 105 µM; on S. cerevisiae Pma1 (setting [2]), 2.5 ± 2.5 µM.
Consider `N=C(N)NCCC[C@@H](N)C(=O)N[C@H](CCCNC(=N)N)C(=O)N[C@H](CCCNC(=N)N)C(=O)N[C@H](Cc1ccccc1)C(=O)N[C@H](Cc1c[nH]c2ccccc12)C(=O)N[C@H](Cc1c[nH]c2ccccc12)C(=O)N[C@H](Cc1ccccc1)C(=O)N[C@H](CCCNC(=N)N)C(=O)N[C@H](CCCNC(=N)N)C(=O)N[C@H](CCCNC(=N)N)C(N)=O` [BM2, reference compound] (HELM PEPTIDE1{[dR].[dR].[dR].[dF].[dW].[dW].[dF].[dR].[dR].[dR].[am]}$$$$V2.0), for which the IC50 at C. albicans Pma1 (setting [4]) is 0.9 ± 0.2 µM; at C. albicans Pma1 (setting [6]), 0.9 µM; at Ca^2+-ATPase (SERCA1a), 1.1 µM; at S. cerevisiae Pma1 (setting [5]), 1.2 ± 0.1 µM. In addition, the “Selectivity for Pma1 over Na^+,K^+-ATPase” value at S. cerevisiae Pma1 amounted to 8 fold.
`CN(C)CCCNc1ncnc2c1sc1nc(-c3ccccc3)c3c(c12)CCC3` [Compound 18]: the IC50 worked out at 22.9 ± 2 µM on C. albicans Pma1 (setting [4]), 69.5 ± 6.9 µM at Ca^2+-ATPase (SERCA1a) and 18.5 ± 4.3 µM at S. cerevisiae Pma1 (setting [5]). The “Selectivity for Pma1 over Na^+,K^+-ATPase” value at S. cerevisiae Pma1 amounted to 4 fold. Moreover, at S. cerevisiae Pma1, the “Selectivity for Pma1 over SERCA” value is given as 3 fold.

The record behind these values is publication PMC5487681, “Identification of Antifungal H^+-ATPase Inhibitors with Effect on Plasma Membrane Potential” (Antimicrobial Agents and Chemotherapy, 2017).
